Experimental data published in patent US20240238186A1, “Topical Compositions Comprising (Glyco)Sphingolipids and/or (Glyco)Ceramides” (CarboCode S.A., priority 2021, published 2024).

Key:
Type in all cases: cell-based
[1] = tested on: Reconstructed Human Epidermis (RHE); assay: Proteomic analysis (LC-MS/MS) of Reconstructed Human Epidermis topically treated with lipid in base emulsion; details: lipid in base emulsion 24h, vs vehicle
Source text: FIGS. 1 to 5 show heatmaps using a log 2 scale with up- or downregulation of respective proteins upon treatment with 0,01% (01), 0,03% (03) and 0,15% (15) of respective ceramide in vehicle as compared to vehicle without ceramide (VEH) (FIG. 1: LacCerNS, FIG. 2: GlcCerNS, FIG. 3: CerNP. FIG. 4: CerNG, FIG. 5: CerNS); detailed experimental setup explained in Example 4.
Material and methods: Reconstructed Human Epidermis (RHE) cell culture was used, as this system mimics the in vivo 3D structure of epidermal tissue as well as the conditions and processes that occur in normal epidermis. RHE were cultured using the medium provided by the manufacturer until analysis. RHE were maintained in survival for 24 hours, before RHE were topically treated with lipid in a base emulsion for 24h. 3 RHE were treated with base emulsion alone and 3 more remained untreated as a control batch (Ctrl). RHE were incubated under classical cell culture conditions (37° C., 5% CO2).
Sample preparation and LC-MS/MS analysis: Protein was extracted using the Pierce Total Protein Extraction Kit (Thermo Fisher) according to manufacturer's recommendations. The protein was mixed with Laemmli buffer and heated to 37° ° C. for 30 min. Protein concentration was determined by the BCA method and standardized for all samples. The samples were separated by SDS-PAGE and digested with trypsin overnight. The peptides generated were acidified and separated. The mass spectra were queried using Proteome Discoverer (version 2.5). The resulting MS/MS data were queried against the Homo sapiens proteome UP000005640 (20371 reviewed entries). Results were filtered based on unique peptides >2, and global peptide scores. Analyses were performed using Proteome Discoverer 2.5 to check for overall sample quality.
Bioinformatics and statistical analysis: Proteomic analysis returned a mean total of 34961 high-quality peptides corresponding to a mean 2422 identifiable and quantifiable RHE proteins among conditions. A summary of proteins differentially expressed within conditions is provided in Annexe 3. Proteins with a p-value≤0,05 in at least one of the concentrations tested for a lipid were considered significant and used for pairwise comparisons. Relevant proteins were classified by their biological processes and associated pathways using the publicly available gene ontology (GO) database provided by the Gene Ontology Consortium and Reactome. Interactome analysis was performed using Cytoscape combined with STRING.

[2] = tested on: Human epidermal keratinocytes; assay: Gene expression in keratinocytes, qPCR; details: 200 ppm in DMSO, 1 week
Experimental: (§1) Human epidermal keratinocytes are obtained from a commercial vendor. The cells are isolated from juvenile foreskin or from adult normal human tissue collected from various sites that include face, breast, abdomen, and thigh. The cells are cultivated in a T25 flask using a commercial keratinocyte Growth Medium which is a serum-free medium and optimized for the in vitro cultivation of epidermal keratinocytes without feeder cells. A commercial growth supplement and calcium is added to a final concentration of 1.2 mM to induce differentiation.
(§2) Upon reaching cell confluence, the cells are treated with either 200 ppm glucosylceramide or 200 ppm lactosylceramide, each dissolved in dimethyl sulfoxide (DMSO) for 1 week. The cells are homogenised with 2 mL chloroform:methanol (2:1), and transferred to a vial containing Phosphate Buffered Saline (PBS). The homogeniser is rinsed twice with solvent and all rinses are together. The organic phase is evaporated to dryness.
Gene expression is determined by isolating RNA samples from the keratinocytes using a Qiagen RNeasy kit with DNase I digestion. Reverse transcription is performed using a high-capacity cDNA kit, cDNA samples of 40 ng are used for qPCR. Taqman gene expression assay is purchased commercially, and the qPCR reaction is performed using a fast amplifier. […] Relative gene expression is calculated by comparative CT method.

[3] = tested on: Human epidermal keratinocytes; assay: Ceramide levels produced by keratinocytes, HPTLC; details: 200 ppm in DMSO, 1 week; compared to untreated keratinocytes
Experimental: as §1, §2
Ceramide levels produced by the keratinocytes are measured by a modified high-performance thin layer chromatography (HPTLC) method. […] The plates are stained with 3% copper acetate in 8% phosphoric acid and charred at 160° C. for the quantitation of ceramides. Quantification is performed against known quantities of Ceramide NP by laser scanning densitometry. Each plate is scanned at 425 nm and quantified using WinCATS software.

SMILES | ATP synthase subunit delta (mitochondrial) regulation [1] | ATP synthase subunit g (mitochondrial) regulation [1] | ceramide synthase 4 protein regulation [1] | cytochrome c oxidase subunit 6C regulation [1] | phosphomevalonate kinase protein regulation [1] | proteins of the mitochondrial respiratory chain, regulation [1] | syndecan-1 protein regulation [1] | IL8 gene expression [2] | TNF gene expression [2] | expression of the ABCA12 gene [2] | involucrin gene expression [2] | transglutaminase-1 gene expression [2] | β-glucocerebrosidase (GBA) expression [2] | ATP-dependent zinc metalloprotease YME1L1 regulation [1] | NAD-dependent malic enzyme (mitochondrial) regulation [1] | Total ceramides in keratinocytes [3] | other results
CCCCCCCCCCCCCCCCCC(=O)N[C@@H](CO)[C@H](O)CCCCCCCCCCCCCCC [ceramide NG] | upregulation | upregulation | upregulation | upregulation | upregulation | upregulation | – | – | – | – | – | – | – | – | – | – | loricrin protein regulation [1]: upregulation; repetin protein regulation [1]: upregulation; small proline-rich protein 2D regulation [1]: upregulation
CCCCCCCCCCCCCCCCCC(=O)N[C@@H](CO)[C@H](O)[C@H](O)CCCCCCCCCCCCCC [ceramide NP] | – | – | – | – | upregulation | upregulation | upregulation | – | – | – | – | – | – | – | – | – | NADH dehydrogenase [ubiquinone] iron-sulfur protein 8 (mitochondrial) regulation [1]: upregulation; long-chain-fatty-acid-CoA ligase 3 protein regulation [1]: upregulation; phosphopantothenate-cysteine ligase protein regulation [1]: upregulation
CCCCCCCCCCCCC/C=C/[C@@H](O)[C@H](CO)NC(=O)CCCCCCCCCCCCCCCCC [ceramide NS] | – | – | – | – | upregulation | – | upregulation | – | – | – | – | – | – | – | – | – | cornifin-B protein regulation [1]: upregulation; filaggrin-2 protein regulation [1]: upregulation; kallikrein-5 protein regulation [1]: upregulation
CCCCCCCCCCCCC/C=C/[C@@H](O)[C@H](CO[C@@H]1O[C@H](CO)[C@@H](O)[C@H](O)[C@H]1O)NC(=O)CCCCCCCCCCCCCCCCC [glucosyl ceramide] | upregulation | upregulation | – | upregulation | upregulation | upregulation | – | reduced gene expression | reduced gene expression | increases | increase in expression | increase in expression | Up-regulation | upregulation | upregulation | elevated | 3-ketodihydrosphingosine reductase protein regulation [1]: upregulation; NADH dehydrogenase [ubiquinone] 1 alpha subcomplex subunit 8 regulation [1]: upregulation; NADH dehydrogenase [ubiquinone] iron-sulfur protein 2 (mitochondrial) regulation [1]: upregulation; acetyl-coenzyme A synthetase (cytoplasmic) protein regulation [1]: upregulation; malonate-CoA ligase ACSF3 (mitochondrial) protein regulation [1]: upregulation
CCCCCCCCCCCCC/C=C/[C@@H](O)[C@H](CO[C@@H]1O[C@H](CO)[C@@H](O[C@@H]2O[C@H](CO)[C@H](O)[C@H](O)[C@H]2O)[C@H](O)[C@H]1O)NC(=O)CCCCCCCCCCCCCCCCC [lactosylceramide] | upregulation | upregulation | upregulation | upregulation | upregulation | upregulation | upregulation | reduced gene expression | reduced gene expression | increases | increase in expression | increase in expression | Up-regulation | upregulation | upregulation | elevated | cytochrome b-c1 complex subunit 9 regulation [1]: upregulation; cytochrome c oxidase subunit 2 regulation [1]: upregulation; cytochrome c oxidase subunit NDUFA4 regulation [1]: upregulation
